Data taken from US8426447B2, “Spiro-tricyclic ring compounds as beta-secretase modulators and methods of use” (Amgen Inc., priority 2008, dated 2013).
Blank lines part the entries; values can stand above or below the compound they belong to.

Columns and labels:
BACE1 [1] = target: T1, BACE1 (Homo sapiens, UniProt P56817); test: In Vitro BACE Cell-based Assay (HEK cell assay): Aβ40 in conditioned medium of cells stably expressing Amyloid Precursor Protein, sandwich ELISA
Experimental: In Vitro BACE Cell-based Assay
The cell-based assay measures inhibition or reduction of Aβ40 in conditioned medium of test compound treated cells expressing amyloid precursor protein.
Cells stably expressing Amyloid Precursor Protein (APP) were plated at a density of 40K cells/well in 96 well plates (Costar). The cells were cultivated for 24 hours at 37° C. and 5% CO2 in DMEM supplemented with 10% FBS. The test compounds were then added to cells in 10-point dose response concentrations with the starting concentration being either 100 μM or 10 μM. The compounds were diluted from stock solutions in DMSO and the final DMSO concentration of the test compounds on cells was 0.1%. After 24 h of incubation with the test compounds the supernatant conditioned media was collected and the Aβ 40 levels were determined using a sandwich ELISA. The IC50 of the compound was calculated from the percent of control or percent inhibition of Aβ 40 as a function of the concentration of the test compound.
The sandwich ELISA to detect Aβ 40 was performed in 96 well microtiter plates, which were pre-treated with goat anti-rabbit IgG (Pierce). The capture and detecting antibody pair that were used to detect Aβ 40 from cell supernatants were affinity purified pAb40 (Biosource) and biotinylated 6E10 (Signet Labs Inc.), respectively. The optimal concentration for the pAb40 antibody was 3 μg/ml in Superblock/TBS (Pierce) that was supplemented with 0.05% Tween 20 (Sigma).
Cellular supernatants were incubated with the capture antibody for 3 h at 4° C., followed by 3 wash steps in TBS-tween (0.05%). The detecting antibody incubation was for 2 h at 4° C., again followed by the wash steps as described previously. The final readout of the ELISA is Time-Resolved Fluorescence (counts per minute) using Delfia reagents Streptavidin-Europium and Enhancement solutions (Perkin Elmer) and the Victor 2 multilabel counter (Perkin Elmer).

BACE1 [2] = target: T1, BACE1; test: In Vitro Enzymatic BACE FRET (Fluorescence Resonance Energy Transfer) Assay; assay type: biochemical
Method in brief: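 Run in 0.05 M acetate pH 4.2 with 10% DMSO final and 100 uM genapol detergent below its CMC. Reaction was started with 50 nM FRET peptide substrate (fluorophore and quencher flanking the BACE cleavage site), incubated one hour, stopped with Tris to neutral pH, and fluorescence read.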

[3] = Table III, IC50's in uM ranges, read-out: HEK cell assay
[4] = Table III, IC50's in uM ranges, read-out: BACE1 FRET assay
[5] = Table IV, class symbols, read-out: HEK cell assay
[6] = Table IV, class symbols, read-out: BACE1 FRET assay
[7] = Table II, Aβ40, 24 h incubation, read-out: HEK cell assay
[8] = Table II, read-out: BACE1 FRET assay
[9] = HEK cells, read-out: HEK cell assay
[10] = HEK cell-based assay, Aβ40 in conditioned medium, IC50 class symbols, read-out: HEK cell assay
[11] = in vitro BACE FRET enzyme assay, IC50 class symbols, read-out: BACE1 FRET assay

T1 sequence (P56817 46-501, species assumed): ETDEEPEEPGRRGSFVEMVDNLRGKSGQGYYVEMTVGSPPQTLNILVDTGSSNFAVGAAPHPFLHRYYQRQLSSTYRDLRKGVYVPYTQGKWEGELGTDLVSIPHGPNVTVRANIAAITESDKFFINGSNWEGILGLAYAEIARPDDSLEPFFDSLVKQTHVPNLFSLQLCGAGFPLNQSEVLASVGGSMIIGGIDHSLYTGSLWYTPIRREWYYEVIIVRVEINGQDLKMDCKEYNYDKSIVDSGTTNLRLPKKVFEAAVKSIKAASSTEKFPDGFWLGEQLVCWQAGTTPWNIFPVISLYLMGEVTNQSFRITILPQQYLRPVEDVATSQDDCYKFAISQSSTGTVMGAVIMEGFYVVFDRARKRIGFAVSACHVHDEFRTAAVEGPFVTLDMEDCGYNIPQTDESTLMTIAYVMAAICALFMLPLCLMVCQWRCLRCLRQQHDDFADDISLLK

IC50 (BACE1 [1]; [3]): 0.1 to 1 µM | IC50 (BACE1 [2]; [4]): < 0.1 µM
SMILES: CC(C)(C)C#Cc1ccc2c(c1)[C@]1(COC(N)=N1)c1cc(-c3ccc(F)nc3)ccc1O2 [147a]

IC50 (BACE1 [1]; [5]): 0.1 to 1 µM | IC50 (BACE1 [2]; [6]): 0.1 to 1 µM
SMILES: CC(C)(O)Cc1ccc2c(c1)[C@]1(COC(N)=N1)c1cc(-c3cccnc3)ccc1O2 [compound 659]

IC50 (BACE1 [1]; [5]): 1 to 5 µM | IC50 (BACE1 [2]; [6]): < 0.1 µM
SMILES: CC(C)(C)COc1ccc2c(c1)[C@]1(COC(N)=N1)c1cc(C3=CCCCC3)ccc1O2 [compound 803]

IC50 (BACE1 [1]; [7]): 0.1 to 1 µM | IC50 (BACE1 [2]; [8]): < 0.1 µM
SMILES: CC(C)(C)COc1ccc2c(c1)[C@]1(COC(N)=N1)c1cc(-c3cc(Cl)ccc3F)ccc1O2 [Example 75, (4S)-2′-(5-chloro-2-fluorophenyl)-7′-(2,2-dimethylpropoxy)spiro[1,3-oxazole-4,9′-xanthen]-2-amine]

IC50 (BACE1 [1]; [9]): < 0.1 µM | IC50 (BACE1 [2]; read-out: BACE1 FRET assay): < 0.1 µM
SMILES: CC1(C)C=C(c2cc3c(cc2F)Oc2ccc(-c4cncnc4)cc2[C@@]32COC(N)=N2)CCO1 [compound 502]

IC50 (BACE1 [1]; [7]): 0.1 to 1 µM | IC50 (BACE1 [2]; [8]): < 0.1 µM
SMILES: COc1ccc2c(c1)[C@@]1(COC(N)=N1)c1cc(NC(=O)c3ccc(Cl)cn3)ccc1O2 [Example 55, N-((4R)-2-amino-7′-methoxyspiro[1,3-oxazole-4,9′-xanthen]-2′-yl)-5-chloro-2-pyridinecarboxamide]

IC50 (BACE1 [1]; [3]): 0.1 to 1 µM | IC50 (BACE1 [2]; [4]): < 0.1 µM
SMILES: CC(C)(C)OCCOc1ccc2c(c1)[C@]1(COC(N)=N1)c1cc(-c3cccnc3)ccc1O2 [compound 159]

IC50 (BACE1 [1]; read-out: HEK cell assay): > 5 µM | IC50 (BACE1 [2]; read-out: BACE1 FRET assay): 0.1 to 1 µM
SMILES: CC(C)(C)COc1ccc2c(c1)[C@]1(COC(N)=N1)c1cc(C3CC4CCC3C4)ccc1O2 (stereo partly drawn) [compound 700]

IC50 (BACE1 [1]; [9]): < 0.1 µM | IC50 (BACE1 [2]; read-out: BACE1 FRET assay): < 0.1 µM
SMILES: CC(C)(F)COc1cnc2c(c1)[C@]1(COC(N)=N1)c1cc(-c3cccnc3F)ccc1O2 [compound 449]

IC50 (BACE1 [1]; [3]): 0.1 to 1 µM | IC50 (BACE1 [2]; [4]): < 0.1 µM
SMILES: CC(C)(C)CC(=O)c1ccc2c(c1)[C@]1(COC(N)=N1)c1cc(-c3ccc(F)nc3)ccc1O2 [150a]

IC50 (BACE1 [1]; [5]): 1 to 5 µM | IC50 (BACE1 [2]; [6]): 0.1 to 1 µM
SMILES: COc1ccc2c(c1)[C@@]1(COC(N)=N1)c1c(ccc(-c3cncnc3)c1F)O2 [compound 899]

IC50 (BACE1 [1]; read-out: HEK cell assay): < 0.1 µM | IC50 (BACE1 [2]; read-out: BACE1 FRET assay): < 0.1 µM
SMILES: CCCOc1cc2c(cc1F)Oc1ccc(-c3cccnc3)cc1[C@@]21COC(N)=N1 [compound 938]

IC50 (BACE1 [1]; HEK cell assay (uM), HEK cells): < 0.1 µM | IC50 (BACE1 [2]; BACE1 FRET assay (uM)): < 0.1 µM
SMILES: NC1=N[C@@]2(CO1)c1cc(-c3cccnc3F)ccc1Oc1cnc(-c3ccccc3)cc12 [compound 494]

IC50 (BACE1 [1]; read-out: HEK cell assay): < 0.1 µM | IC50 (BACE1 [2]; read-out: BACE1 FRET assay): < 0.1 µM
SMILES: CC(C)(C)COc1ccc2c(c1)[C@@]1(COC(N)=N1)c1cc(-c3ccc(OCC4CC4)nc3)cnc1O2 [compound 741]

IC50 (BACE1 [1]; Table 1, Aβ40, 24 h incubation, read-out: HEK cell assay): 1 to 5 µM | IC50 (BACE1 [2]; Table 1, read-out: BACE1 FRET assay): 0.1 to 1 µM
SMILES: COc1ccc2c(c1)C1(COC(N)=N1)c1cc(-c3cncnc3)ccc1O2 (stereo not drawn) [Example 14, 2′-methoxy-7′-(5-pyrimidinyl)spiro[1,3-oxazole-4,9′-xanthen]-2-amine]

IC50 (BACE1 [1]; read-out: HEK cell assay): > 5 µM | IC50 (BACE1 [2]; read-out: BACE1 FRET assay): 1 to 5 µM
SMILES: NC1=N[C@@]2(CO1)c1cc(Br)ccc1Oc1ccc(C#CC3(O)CCC3)cc12 [compound 957]

IC50 (BACE1 [1]; read-out: HEK cell assay): > 5 µM | IC50 (BACE1 [2]; read-out: BACE1 FRET assay): > 5 µM
SMILES: CC(C)(O)C#Cc1cnc2c(c1)[C@@]1(COC(N)=N1)c1cc(C#CC3CC3)ccc1O2 [compound 705]

IC50 (BACE1 [1]; [3]): < 0.1 µM | IC50 (BACE1 [2]; [4]): < 0.1 µM
SMILES: CC(C)(C)COc1ccc2c(c1)[C@@]1(COC(N)=N1)c1cc(-c3ncccn3)ccc1O2 [compound 186]

IC50 (BACE1 [1]; [5]): 1 to 5 µM | IC50 (BACE1 [2]; [6]): 1 to 5 µM
SMILES: COc1ccc2c(c1)[C@]1(COC(N)=N1)c1cc(-c3ccnc4ccccc34)ccc1O2 [compound 589]

IC50 (BACE1 [1]; read-out: HEK cell assay): 0.1 to 1 µM | IC50 (BACE1 [2]; read-out: BACE1 FRET assay): 0.1 to 1 µM
SMILES: CC(C)(C)OC(=O)Cc1ccc2c(c1)[C@]1(COC(N)=N1)c1cc(-c3cncnc3)ccc1O2 [compound 765]

IC50 (BACE1 [1]; [5]): 1 to 5 µM | IC50 (BACE1 [2]; [6]): 0.1 to 1 µM
SMILES: CC(C)(C)COc1ccc2c(c1)[C@]1(COC(N)=N1)c1cc(-c3cncnc3O)ccc1O2 [compound 884]

IC50 (BACE1 [1]; [10]): > 5 µM | IC50 (BACE1 [2]; [11]): 1 to 5 µM
SMILES: COc1ccc2c(c1)[C@@]1(COC(N)=N1)c1cc(Br)cc(F)c1O2 [compound 378]

IC50 (BACE1 [1]; read-out: HEK cell assay): 0.1 to 1 µM | IC50 (BACE1 [2]; read-out: BACE1 FRET assay): < 0.1 µM
SMILES: CC(C)(C)OC(=O)N1CC=C(c2ccc3c(c2)[C@]2(COC(N)=N2)c2cc(-c4cncnc4)ccc2O3)CC1 [compound 968]

IC50 (BACE1 [1]; [10]): 0.1 to 1 µM | IC50 (BACE1 [2]; [11]): < 0.1 µM
SMILES: NC1=N[C@@]2(CO1)c1cc(-c3cccnc3N3CCOCC3)ccc1Oc1cnc(N3CCOCC3)cc12 [compound 336]
